Counter-ions that a name gives are not always drawn.
Key:
OVA-specific IgE = assay: Effect on antibody production of ovalbumin-sensitized mice: IgE; assay type: in vivo, BALB/c mouse; conditions: Mus musculus, po, 264 h; 30 mg/kg b.w. orally, 5 days a week during 9-day period; serum 11 days after first sensitization, ELISA; read-out: Suppression Rate (%) IgE
Procedure: (§1) Effect on Antibody Production of Mice Sensitized by Controlled-Release Ovalbumin
(§2) A male BALB/c mouse (Charles River) of 7 weeks old was sensitized by intraabdominal administration, twice at an interval of a week, of a mixture of 10 μg/mouse of ovalbumin (OVA; albumin chicken egg grade III; Sigma Chemical) and 1 mg of aluminum hydroxide hydrate gel suspension (Alum; LSL Co. LTD.). After 11 days from the first sensitization, blood was collected from beneath eye under ether anesthesia, and the amount of OVA-specific IgE, IgG1 (Th2 type) and IgG2a (Th1 type) antibodies in the serum were determined by the ELISA method. A sample compound (30 mg/kg b.w.) was suspended in 0.4 ml of methylcellulose (MC), and the suspension was orally administered, 5 days a week during the 9-day period from the initiation day of sensitization to the day before the day of blood sample collection (1 Group, n=8 to 10).

[1] = test system: OVA-specific IgG2a (Th1 type); assay: Effect on antibody production of ovalbumin-sensitized mice: IgG2a; assay type: in vivo, BALB/c mouse; conditions: Mus musculus, po, 264 h; 30 mg/kg b.w. orally, 5 days a week during 9-day period; serum 11 days after first sensitization, ELISA; read-out: Suppression Rate (%) IgG2a
Procedure: as §1, §2

| SMILES | melting point | inhibition in vivo at 30 mg/kg (OVA-specific IgE) | inhibition in vivo at 30 mg/kg [1] |
| --- | --- | --- | --- |
| Cc1nn(-c2ccccn2)c2nc(O)c3c(c12)CCCC3 [Example 1-29, 1-Methyl-3-(2-pyridinyl)-6,7,8,9-tetrahydro-3H-pyrazolo[3,4-c]isoquinolin-5-ol] | 248 to 249 °C | 19.1% | -22.6% |
| Cc1nn(-c2ccccn2)c2[nH]c3ccccc3c(=S)c12 [Example 1-42, 3-Methyl-1-(2-pyridinyl)-1,9-dihydro-4H-pyrazolo[3,4-b]quinolin-4-thione] | 252 to 253 °C | 24% | 14.3% |
| Cc1nn(Cc2ccccn2)c2nc3ccccc3c(N)c12 [Example 1-68, 3-Methyl-1-(2-pyridinylmethyl)-1H-pyrazolo[3,4-b]quinolin-4-ylamine] | – | 31.6% | 31.7% |
| Cc1nn(-c2ccccn2)c2ncc(C(=O)O)c(O)c12 [Example 1-2, 4-Hydroxy-3-methyl-1-(2-pyridinyl)-1H-pyrazolo[3,4-b]pyridine-5-carboxylic acid] | – | 29.2% | -67.9% |
| Cc1nn(-c2ccccn2)c2nc(-c3ccccc3)cc(O)c12 [Example 1-22, 3-Methyl-6-phenyl-1-(2-pyridinyl)-1H-pyrazolo[3,4-b]pyridin-4-ol] | 198 to 199 °C | 14% | -2.1% |
| Cc1ccc(-n2nc(C)c3c(N)c4ccccc4nc32)nc1 [Example 1-54, 3-Methyl-1-(5-methyl-2-pyridinyl)-1H-pyrazolo[3,4-b]quinolin-4-ylamine] | – | 17.6% | -148% |
| CCOC(=O)c1cnc2c(c(C)nn2-c2ccccn2)c1O [Example 1-1, Ethyl 4-hydroxy-3-methyl-1-(2-pyridinyl)-1H-pyrazolo[3,4-b]pyridine-5-carboxylate] | 166 to 169 °C | 46.3% | 17.8% |
| Cc1ccc(-n2nc(C)c3c(=O)c4ccccc4[nH]c32)nc1 [Example 1-55, 3-Methyl-1-(5-methyl-2-pyridinyl)-1,9-dihydro-4H-pyrazolo[3,4-b]quinolin-4-one hydrochloride] | – | 11.7% | 13.7% |
| Cc1nn(-c2cccnc2)c2nc3ccccc3c(N)c12 [Example 1-63, 3-Methyl-1-(3-pyridinyl)-1H-pyrazolo[3,4-b]quinolin-4-ylamine dihydrochloride] | – | 25.2% | -5.8% |
| Cc1nn(-c2ccccn2)c2nc3ccccc3c(N(C)C)c12 [Example 1-38, N,N-Dimethyl-N-[3-methyl-1-(2-pyridinyl)-1H-pyrazolo[3,4-b]quinolin-4-yl]amine] | 98 to 101 °C | 36.1% | -122% |
| Cc1nn(-c2ccccn2)c2nc3ccc(F)cc3c(Cl)c12 [Example 1-52, 4-Chloro-6-fluoro-3-methyl-1-(2-pyridinyl)-1H-pyrazolo[3,4-b]quinoline] | – | 41.1% | 39.9% |
| Cc1nn(-c2ccccn2)c2nc(O)c(Cc3ccccc3)c(C)c12 [Example 1-25, 5-Benzyl-3,4-dimethyl-1-(2-pyridinyl)-1H-pyrazolo[3,4-b]pyridin-6-ol] | 208 to 209 °C | 33.9% | 16.5% |
| Cc1nn(-c2ccccn2)c2nc(O)cc(-c3ccccc3)c12 [Example 1-27, 3-Methyl-4-phenyl-1-(2-pyridinyl)-1H-pyrazolo[3,4-b]pyridin-6-ol] | 195 to 196 °C | 24.3% | 27.1% |
| Cl.Nc1c2ccccc2nc2c1cnn2-c1ccccn1 [Example 1-67, 1-(2-Pyridinyl)-1H-pyrazolo[3,4-b]quinolin-4-ylamine hydrochloride] | 312 to 315 °C | 10.5% | -30.7% |
| Cc1nn(-c2ccccn2)c2[nH]c3ccc(F)cc3c(=O)c12 [Example 1-53, 6-Fluoro-3-methyl-1-(2-pyridinyl)-1,9-dihydro-4H-pyrazolo[3,4-b]quinolin-4-one] | – | 8% | 36.1% |
| Cc1nn(-c2ccccn2)c2nccc(O)c12 [Example 1-3, 3-Methyl-1-(2-pyridinyl)-1H-pyrazolo[3,4-b]pyridin-4-ol] | – | 19% | -39.5% |
| CCc1nn(-c2ccccn2)c2[nH]c3cc(F)c(F)cc3c(=O)c12 [Example 2-201, 3-Ethyl-6,7-difluoro-1-(2-pyridinyl)-1,9-dihydro-4H-pyrazolo[3,4-b]quinolin-4-one] | 247 to 248 °C | – | – |
| COc1cccc(-n2nc(C)c3c(N)c4cccc(C)c4nc32)n1 [Example 2-127, 3,8-Dimethyl-1-(6-methoxy-2-pyridinyl)-1H-pyrazolo[3,4-b]quinolin-4-ylamine] | 134 to 137 °C | – | – |

| SMILES | melting point | inhibition in vivo at 30 mg/kg (OVA-specific IgE) | inhibition in vivo at 30 mg/kg [1] |
| --- | --- | --- | --- |
| CCc1nn(-c2ccccn2)c2nc3cc(F)c(F)cc3c(Cl)c12 [Example 2-200, 4-Chloro-3-ethyl-6,7-difluoro-1-(2-pyridinyl)-1H-pyrazolo[3,4-b]quinoline] | 160 to 161 °C | – | – |
| Cc1nn(-c2ccccn2)c2[nH]c3cc(Cl)ccc3c(=O)c12 [Example 2-74, 7-Chloro-3-methyl-1-(2-pyridinyl)-1,9-dihydro-4H-pyrazolo[3,4-b]quinolin-4-one] | 274 to 275 °C | – | – |
| Cc1cccc2[nH]c3c(c(C)nn3-c3ccccn3)c(=O)c12 [Example 2-31, 3,5-Dimethyl-1-(2-pyridinyl)-1,9-dihydro-4H-pyrazolo[3,4-b]quinolin-4-one] | 183 to 186 °C | – | – |
| CCOc1cccc(-n2nc(C)c3c(N)c4cccc(C)c4nc32)n1 [Example 2-129, 3,8-Dimethyl-1-(6-ethoxy-2-pyridinyl)-1H-pyrazolo[3,4-b]quinolin-4-ylamine] | 184 to 187 °C | – | – |
| Cc1nn(-c2ccccn2)c2[nH]c3ccc([S+](C)[O-])cc3c(=O)c12 (stereo not drawn) [Example 2-51, 3-Methyl-6-(methylsulfinyl)-1-(2-pyridinyl)-1,9-dihydro-4H-pyrazolo[3,4-b]quinolin-4-one] | 268 to 269 °C | – | – |
| Cc1nn(-c2ccccn2)c2nc3cc([N+](=O)[O-])ccc3c(Cl)c12 [Example 2-57, 4-Chloro-3-methyl-7-nitro-1-(2-pyridinyl)-1H-pyrazolo[3,4-b]quinoline] | 226 to 227 °C | – | – |
| Cc1nn(-c2ccccn2)c2nc3ccc(C(F)(F)F)cc3c(Cl)c12 [Example 2-39, 4-Chloro-3-methyl-1-(2-pyridinyl)-6-(trifluoromethyl)-1H-pyrazolo[3,4-b]quinoline] | 206 °C | – | – |
| Cc1cccc2nc3c(c(C)nn3-c3ccccn3)c(Cl)c12 [Example 2-29, 4-Chloro-3,5-dimethyl-1-(2-pyridinyl)-1H-pyrazolo[3,4-b]quinoline] | 167 to 169 °C | – | – |
| Cc1nn(-c2cccnc2)c2[nH]c3ccccc3c(=O)c12 [Example 2-138, 3-Methyl-1-(3-pyridinyl)-1,9-dihydro-4H-pyrazolo[3,4-b]quinolin-4-one] | 282 to 283 °C | – | – |
| O=c1c2cc(F)ccc2[nH]c2c1cnn2-c1ccccn1 (as salt: salt) [Example 2-165, 6-Fluoro-1-(2-pyridinyl)-1,9-dihydro-4H-pyrazolo[3,4-b]quinolin-4-one] | 263 to 266 °C | – | – |
| Cc1cccc(-n2nc(C)c3c(Cl)c4ccccc4nc32)n1 [Example 2-207, 4-Chloro-3-methyl-1-(6-methyl-2-pyridinyl)-1H-pyrazolo[3,4-b]quinoline] | 154 °C | – | – |
| Cc1nn(-c2ccccn2)c2nc3ccc(F)cc3c(Cl)c12 [Example 2-80, 4-Chloro-6-fluoro-3-methyl-1-(2-pyridinyl)-1H-pyrazolo[3,4-b]quinoline] | 185 to 187 °C | – | – |
| O=C(O)Cc1nn(-c2ccccn2)c2[nH]c3ccccc3c(=O)c12 [Example 2-177, 2-[4-Oxo-1-(2-pyridinyl)-4,9-dihydro-1H-pyrazolo[3,4-b]quinolin-3-yl]acetic acid] | 229 to 231 °C | – | – |
| Cc1nn(-c2ccccn2)c2[nH]c3ccc(Br)cc3c(=O)c12 [Example 2-87, 6-Bromo-3-methyl-1-(2-pyridinyl)-1,9-dihydro-4H-pyrazolo[3,4-b]quinolin-4-one] | 240 to 242 °C | – | – |
| COC(=O)c1ccc2c(=O)c3c(C)nn(-c4ccccn4)c3[nH]c2c1 [Example 2-67, Methyl 3-methyl-4-oxo-1-(2-pyridinyl)-4,9-dihydro-1H-pyrazolo[3,4-b]quinoline-7-carboxylate] | 251 to 252 °C | – | – |
| Cc1cc(O)nc2c1c(C)nn2-c1ccccn1 [Example 1-23, 3,4-Dimethyl-1-(2-pyridinyl)-1H-pyrazolo[3,4-b]pyridin-6-ol] | 254 to 255 °C | – | – |
| Cc1nn(-c2ccccn2)c2[nH]c3cc(Cl)c(Cl)cc3c(=O)c12 [Example 2-76, 6,7-Dichloro-3-methyl-1-(2-pyridinyl)-1,9-dihydro-4H-pyrazolo[3,4-b]quinolin-4-one] | 303 to 304 °C | – | – |
| Cc1nn(-c2ccccn2)c2nc3cc(F)c(Cl)cc3c(Cl)c12 [Example 2-98, 4,6-Dichloro-7-fluoro-3-methyl-1-(2-pyridinyl)-1H-pyrazolo[3,4-b]quinoline] | 211 °C | – | – |

From patent US6949648B2, “Condensed pyrazole derivatives, process for producing the same and use thereof” (Takeda Pharmaceutical Company Limited, priority 2000, dated 2005)
